# Source: patent US20200030347A1, “ANTIMICROBIAL COMPOSITIONS” (Matoke Holdings Limited, priority 2016, published 2020)
# Assays:
# [1] = 20° C. and 1 atm; cited from earlier work
# [2] = tested on: human nasal epithelial cell line; assay: Gene expression by quantitative real-time PCR in nasal epithelial cells; type: cell-based; conditions: 1 hour
# Description: The fold change was calculated based on normalisation to the expression of the endogenous R-actin housekeeping gene. […] The dotted line for y=0 represents the untreated control group to which gene expression in the treatment groups were normalised and compared using an unpaired two tailed T test. *p≤0.05, ** […], *** p≤0.001, **** p≤0.0001; A human nasal epithelial cell line was used to investigate the immediate effect of SurgihoneyRO (also known as Surgihoney) on the integrity and function of the epithelium. In addition, a human mast cell line was used as a representative leukocyte to investigate immunological responses to SurgihoneyRO. Mast cells were selected because of their function as sentinel cells, being located just underneath the epithelium in tissues. Mast cells have close contact to the external environment, for example being found in the nasal mucosa, where they are ideally placed to participate in the early recognition of pathogens—by acting as immune effectors and modulatory cells with an essential role in linking innate and adaptive immunity in the host's defence against pathogens such as bacteria. […] In this case, we treated cells with an appropriate concentration range of pure hydrogen peroxide, from 0-400 uM.
# [3] = tested on: human mast cell line (HMC-1); assay: Gene expression by quantitative real-time PCR in mast cells; type: cell-based; conditions: 1 hour
# Description: Gene-expression profiles for Th17 related cytokines were analysed in HMC-1 treated with 10 g/L or 100 g/L of SurgihoneyRO for 5 minutes, 1 hour and 2 hours using quantitative real-time PCR. The fold change was calculated based on normalisation to the expression of the endogenous R-actin housekeeping gene. […] The dotted line for y=0 represents the untreated control group to which gene expression in the treatment groups were normalised and compared using an unpaired two tailed T test. *p≤0.05, ** […], *** p≤0.001, **** p≤0.0001;
# A human nasal epithelial cell line was used to investigate the immediate effect of SurgihoneyRO (also known as Surgihoney) on the integrity and function of the epithelium. In addition, a human mast cell line was used as a representative leukocyte to investigate immunological responses to SurgihoneyRO. Mast cells were selected because of their function as sentinel cells, being located just underneath the epithelium in tissues.
# We then studied the response of the mast cell line (HMC-1) to SurgihoneyRO treatment.
# In this case, we treated cells with an appropriate concentration range of pure hydrogen peroxide, from 0-400 uM.
# [4] = tested on: 48 h in vitro NTHi biofilms; assay: NTHi biofilm assay (cfu enumeration); type: cell-based, non-typeable Haemophilus influenza; conditions: 300/60 μg·ml; 2 hours
# Description: Bacterial strains used in this study were isolated from nasopharyngeal swabs of children aged 4 years. NTHi was sub-cultured from frozen stocks onto Colombia agar with chocolated horse blood (Oxoid, UK) and incubated for 18 h at 37° C. and 5% CO2, following which colonies were resuspended in Brain Heart Infusion (BHI) broth supplemented with 10 μg/ml Hemin and 2 μg/ml NAD, and grown to mid-exponential phase for experiments. Pseudomonas aeruginosa PA01 and a clinical methicillin resistant Staphylococcus aureus isolate were subcultured onto Colombia blood agar plates (Oxoid, UK) and grown in non-supplemented BHI. […]
# Mid-exponential planktonic cultures were used to inoculate individual wells of untreated 6-well polystyrene plates (˜1.0×10^8 planktonic bacteria per well; Corning Incorporated, USA). Cultures were incubated at 37° C. and 5% CO2 for 48 h, replacing spent media with fresh supplemented BHI (NTHi) at 24 h. Prior to treatment spent media was removed and biofilms washed twice with Hanks' balanced salt solution (HBSS; Gibco, UK). Biofilms were treated with SurgihoneyRO™ or Acacia (both prepared in HBSS) at final concentrations of 7 to 213 g/L. To assess the effect of pH biofilms were treated with HBSS adjusted to pH6.3 (the pH of 71 g/L SurgihoneyRO™ in HBSS). For adjuvant assays biofilms were treated with 300 μg/mL amoxicillin and 60 μg/mL clavulanic acid (Co-amoxiclav). […]
compound,measurement,setting,value
O=C(CO)[C@@H](O)[C@H](O)[C@H](O)CO [Fructose],solubility,[1],about 375 g/100 g water
OO [hydrogen peroxide],"IL22 expression, fold change",[2]; 40 μM,0.90 fold
same,"IL23R expression, fold change",[2]; 40 μM,0.45 fold
same,"IL22 expression, fold change",[2]; 200 μM,1.42 fold
same,"IL23R expression, fold change",[2]; 200 μM,1.20 fold
same,"GATA3 expression, fold increase",[2]; 400 μM,0.92 fold
same,"IL10 expression, fold change",[2]; 400 μM,4.63 fold
same,"IL22 expression, fold change",[2]; 400 μM,4.55 fold
same,"IL23R expression, fold change",[2]; 400 μM,1.87 fold
same,"MMP9 expression, fold change",[2]; 400 μM,1.47 fold
same,"RORγC expression, mean increase",[2]; 400 μM,14.57 fold
same,"IL22 expression, fold change",[3]; 40 μM,0.60 fold
same,"IL23R expression, fold change",[3]; 40 μM,0.47 fold
same,"IL22 expression, fold change",[3]; 200 μM,1.25 fold
same,"IL23R expression, fold change",[3]; 200 μM,0.58 fold
same,"MMP7 expression, fold increase",[3]; 200 μM,3.07 fold
same,"IL22 expression, fold change",[3]; 400 μM,1.81 fold
same,"IL23R expression, fold change",[3]; 400 μM,1.05 fold
same,"MMP7 expression, fold increase",[3]; 400 μM,3.31 fold
same,"RORγC expression, mean increase",[3]; 400 μM,2.83 fold
co-amoxiclav,effect on biofilm viability,[4],no effect
